According to patent US20150126467A1, “USE OF ALGINATE OLIGOMERS TO ENHANCE THE EFFECTS OF ANTIFUNGAL AGENTS” (AlgiIPharma AS, priority 2011, published 2015):
≈ marks a conversion by molar mass, not a printed value. Like-named read-outs stand apart in the source and are kept apart here.

What was measured:
[1] = system: Aspergillus fumigatus CCUG 17460; assay: Robotic MIC assay, Aspergillus (Example 4); format: cell-based; conditions: Aspergillus fumigatus, CCUG17460, 48 h, Mueller-Hinton broth, read-out: Minimum Inhibitory Concentration (MIC)
Description: (§1) Aspergillus sp. was grown at 30° C. for 96 h on YM-agar. Spores and aerial mycelium was cut out from the agar, suspended in 1 ml YM-broth and dispersed with glass beads (1 mm) in a mini bead beater for 2 min. Glycerol was added to the suspension to 10% and frozen at −80° C.
(§2) Each batch of frozen stock culture was then characterized in separate growth experiments using Mueller-Hinton broth to determine the minimum amount of inoculum giving satisfactory growth after 48 h under the conditions relevant for the MIC assay. This inoculation procedure is used in order to reduce day to day variation in bioassays.
(§3) Robotic minimum inhibitory concentration (MIC) assay was performed as follows. OligoG CF-5/20 was dissolved in medium (Mueller-Hinton broth) to 1.25 times of the desired assay concentrations (2, 6 and 10%). […].
(§4) Two-fold serial dilutions of antifungal agents were made in medium with different concentrations of OligoG CF-5/20, and the solutions were placed in four parallel wells in Nunc 384-well micro plates (30 μl per well in Nunc 242757 microplates). A group of 8 wells with no addition of antifungal agents for each OligoG CF-5/20 concentration was included on each micro plate as growth reference. Each well in the 384-well assay plates was added 7.5 μl of the MH medium inoculated with frozen stock culture of the relevant strains.
(§5) The microplates were placed in plastic bags and incubated without shaking at 34° C. The optical density at 600 nm in the microwells was measured after approximately 24 and 48 hours of incubation. […]

[2] = system: Aspergillus flavus CCUG 28296; assay: Robotic MIC assay, Aspergillus (Example 4); format: cell-based; conditions: Aspergillus flavus, CCUG23451 / CCUG28296, 48 h, Mueller-Hinton broth, read-out: Minimum Inhibitory Concentration (MIC)
Description: as §1, §2, §3, §4, §5

[3] = system: Cryptococcus neoformans CCUG 23451; assay: Robotic MIC assay, Cryptococcus neoformans (Example 6); format: cell-based; conditions: for MIC: Cryptococcus neoformans, read-out: Minimum Inhibitory Concentration (MIC); for effect on MIC when OligoG is added to the medium: media: RPMI with 2% glucose
Description: Cryptococcus sp. was grown at 30° C. for 96 h on YM-agar. Spores and aerial mycelium was cut out from the agar, suspended in 1 ml YM-broth and dispersed with glass beads (1 mm) in a mini bead beater for 2 min. The suspension was added glycerol to 10% and frozen at −80° C. Each batch of frozen stock culture was then characterized in separate growth experiments using Mueller-Hinton and RPMI to determine the minimum amount of inoculum giving satisfactory growth after 48 h under the conditions relevant for the MIC assay. This inoculum procedure is used in order to reduce day to day variation in bioassays.
Robotic minimum inhibitory concentration (MIC) assay was performed as follows. OligoG CF-5/20 was dissolved in medium (Mueller-Hinton, RPMI with 2% glucose, Sabouraud or YM) to 1.25 times of the desired assay concentrations (2, 6 and 10%). […].
as §4, with “the” for “the MH”, “innoculated” for “inoculated”
The microplates were placed in plastic bags and incubated without shaking at 34° C. The optical density at 600 nm in the microwells was measured after certain time points from 24 h to 96 h of incubation. […]

[4] = system: C. parapsillosis ATCC 22019T; assay: Robotic MIC assay, Candida strains (Example 2); format: cell-based, Candida parapsilosis; conditions: Lodderomyces parapsilosis, ATCC22019, 48 h, Mueller-Hinton broth, read-out: Minimum Inhibitory Concentration (MIC)
Description: A robotic MIC Assay was performed as follows. OligoG CF-5/20 were dissolved in medium (Mueller-Hinton broth or M19 broth depending on experiment) to 1.25 times of the desired assay concentrations (2, 6 and 10%). The antifungal agents under test were dissolved in medium without OligoG CF-5/20 and in medium with OligoG CF-5/20 at a concentration of 1.25 times the highest desired assay concentrations. For experiments where the effect of adding different concentrations of Na^+ was investigated, NaCl was dissolved in medium to the desired concentrations (10, 30 and 50 mM).
Two-fold serial dilutions of antifungal agents were made in medium with different concentrations of OligoG CF-5/20, and the solutions were placed in four parallel wells in Nunc 384-well micro plates (30 μl per well in Nunc 242757 microplates). A group of 8 wells with no addition of antifungal agents for each OligoG CF-5/20 concentration was included on each microplate as growth reference. To each well in the 384-well assay plates was added 7.5 μl of medium inoculated with a frozen stock culture of Candida albicans (strain CCUG 39343).
The micro plates were placed in plastic bags and incubated without shaking at 34° C. The optical density at 600 nm in the microwells was measured after approximately 13, 18, 24 and 34 hours of incubation, and the relative growth yield in each well was calculated based on the growth in the reference groups.
The robotic assay described in Example 1 was employed in this Example. Strains were grown in Mueller-Hinton broth (LAB114 from Lab M Limited) and MIC values (μg ml-1) were determined for each antifungal after incubation for 48 h in the presence of 0, 2, 6 and 10% OligoG CF-5/20 G-fragments. […] OligoG CF-5/20 G-fragments were provided by AlgiPharma AS, Norway.
Candida strains used were as follows: • C. albicans CCUG 39343 (strain from culture collection) • C. parapsillosis ATCC 22019T (strain from culture collection) • C. krusei 141/03 (candidosis) • C. krusei 249/03(2) (ulceration) • C. lusitaniae 994/01(2) (candidosis) • C. tropicalis 12 (vaginal) • C. tropicalis 75 (vaginal) • C. tropicalis 519468 (urinary) • C. tropicalis 544123 (urinary) • C. tropicalis 250/03 (candidosis) • C. tropicalis AG1 (oral) • C. tropicalis T2.2 (oral)

[5] = A. fumigatus CCUG 17460, 0% OligoG
[6] = A. fumigatus CCUG 17460, 2% OligoG
[7] = A. fumigatus CCUG 17460, 6% OligoG
[8] = A. fumigatus CCUG 17460, 10% OligoG
[9] = A. flavus CCUG 23451, 0% OligoG
[10] = A. flavus CCUG 23451, 2% OligoG
[11] = A. flavus CCUG 23451, 6% OligoG
[12] = A. flavus CCUG 23451, 10% OligoG
[13] = CCUG23451, 72 h, RPMI 2% GLU, 0% OligoG, 72 hours
[14] = CCUG23451, 72 h, RPMI 2% GLU, 2% OligoG, 72 hours
[15] = CCUG23451, 72 h, RPMI 2% GLU, 6% OligoG, 72 hours
[16] = CCUG23451, 72 h, Sabouraud, 0% OligoG, 72 hours
[17] = CCUG23451, 72 h, Sabouraud, 2% OligoG, 72 hours
[18] = CCUG23451, 72 h, Sabouraud, 6% OligoG, 72 hours
[19] = CCUG23451, 72 h, YM, 0% OligoG, 72 hours
[20] = CCUG23451, 72 h, YM, 2% OligoG, 72 hours
[21] = CCUG23451, 96 h, MH, 0% OligoG, 96 hours
[22] = CCUG23451, 96 h, MH, 2% OligoG, 96 hours
[23] = CCUG23451, 96 h, RPMI 2% GLU, 0% OligoG, 96 hours
[24] = CCUG23451, 96 h, RPMI 2% GLU, 2% OligoG, 96 hours
[25] = CCUG23451, 96 h, RPMI 2% GLU, 6% OligoG, 96 hours
[26] = CCUG23451, 96 h, Sabouraud, 0% OligoG, 96 hours
[27] = CCUG23451, 96 h, Sabouraud, 2% OligoG, 96 hours
[28] = CCUG23451, 96 h, Sabouraud, 6% OligoG, 96 hours
[29] = CCUG23451, 96 h, YM, 0% OligoG, 96 hours
[30] = CCUG23451, 96 h, YM, 2% OligoG, 96 hours

MIC [1, 5]	MIC [1, 6]	MIC [1, 7]	MIC [1, 8]	MIC [2, 9]	MIC [2, 10]	MIC [2, 11]	MIC [2, 12]	Structure (SMILES)	MIC [3, 13]	MIC [3, 14]	MIC [3, 15]	MIC [3, 16]	MIC [3, 17]	MIC [3, 18]	MIC [3, 19]	MIC [3, 20]	MIC [3, 21]	MIC [3, 22]	MIC [3, 23]	MIC [3, 24]	other results
4 mg/L (≈ 9.61 µM)	2 mg/L (≈ 4.81 µM)	2 mg/L (≈ 4.81 µM)	2 mg/L (≈ 4.81 µM)	1 mg/L (≈ 2.4 µM)	0.25 mg/L (≈ 0.601 µM)	0.25 mg/L (≈ 0.601 µM)	0.25 mg/L (≈ 0.601 µM)	Clc1ccc(COC(Cn2ccnc2)c2ccc(Cl)cc2Cl)c(Cl)c1 (stereo not shown) [Miconazole, miconazole]	4 mg/L (≈ 9.61 µM)	2 mg/L (≈ 4.81 µM)	0.5 mg/L (≈ 1.2 µM)	< 0.0156 mg/L	0.0625 mg/L (≈ 0.15 µM)	0.00781 mg/L (≈ 0.0188 µM)	0.5 mg/L (≈ 1.2 µM)	0.5 mg/L (≈ 1.2 µM)	1 mg/L (≈ 2.4 µM)	0.125 mg/L (≈ 0.3 µM)	4 mg/L (≈ 9.61 µM)	2 mg/L (≈ 4.81 µM)	MIC [3, 25]: 1 mg/L (≈ 2.4 µM); MIC [3, 26]: 0.0625 mg/L (≈ 0.15 µM); MIC [3, 27]: 0.25 mg/L (≈ 0.601 µM); MIC [3, 28]: 0.5 mg/L (≈ 1.2 µM); MIC [3, 29]: 0.5 mg/L (≈ 1.2 µM); MIC [3, 30]: 1 mg/L (≈ 2.4 µM); effect on MIC when OligoG is added to the medium ([3]; MH, Sabouraud, YM): reduction in MIC in RPMI with glucose and in MH medium
4 mg/L (≈ 13.7 µM)	4 mg/L (≈ 13.7 µM)	4 mg/L (≈ 13.7 µM)	2 mg/L (≈ 6.86 µM)	0.125 mg/L (≈ 0.429 µM)	0.0625 mg/L (≈ 0.214 µM)	< 0.0312 mg/L	< 0.0312 mg/L	CN(C/C=C/C#CC(C)(C)C)Cc1cccc2ccccc12 [Terbinafine, terbinafine]	–	–	–	–	–	–	–	–	–	–	–	–	MIC ([4]; 0% OligoG): 2 mg/L (≈ 6.86 µM); MIC ([4]; 2% OligoG): 1 mg/L (≈ 3.43 µM); MIC ([4]; 6% OligoG): 2 mg/L (≈ 6.86 µM); MIC ([4]; 10% OligoG): 1 mg/L (≈ 3.43 µM)

Structure (SMILES)	MIC [1, 5]	MIC [1, 6]	MIC [1, 7]	MIC [1, 8]	MIC [2, 9]	MIC [2, 10]	MIC [2, 11]	MIC [2, 12]	MIC [3, 13]	MIC [3, 14]	MIC [3, 15]	MIC [3, 16]	MIC [3, 17]	MIC [3, 18]	MIC [3, 19]	MIC [3, 20]	MIC [3, 21]	MIC [3, 22]	MIC [3, 23]	MIC [3, 24]	other results
C[C@@H]1[C@H](O)[C@@H](C)/C=C/C=C/C=C/C=C/C=C/C=C/C=C/[C@H](O[C@@H]2O[C@H](C)[C@@H](O)[C@H](N)[C@@H]2O)C[C@@H]2O[C@](O)(C[C@@H](O)C[C@@H](O)[C@H](O)CC[C@@H](O)C[C@@H](O)CC(=O)O[C@H]1C)C[C@H](O)[C@H]2C(=O)O [Amphotericin B, amphotericin B]	0.75 mg/L (≈ 0.812 µM)	0.375 mg/L (≈ 0.406 µM)	0.375 mg/L (≈ 0.406 µM)	0.188 mg/L (≈ 0.203 µM)	0.75 mg/L (≈ 0.812 µM)	0.375 mg/L (≈ 0.406 µM)	0.375 mg/L (≈ 0.406 µM)	0.188 mg/L (≈ 0.203 µM)	> 1.5 mg/L	1.5 mg/L (≈ 1.62 µM)	0.75 mg/L (≈ 0.812 µM)	0.188 mg/L (≈ 0.203 µM)	0.0938 mg/L (≈ 0.101 µM)	0.0117 mg/L (≈ 0.0127 µM)	> 1.5 mg/L	1.5 mg/L (≈ 1.62 µM)	1.5 mg/L (≈ 1.62 µM)	0.188 mg/L (≈ 0.203 µM)	> 1.5 mg/L	> 1.5 mg/L	MIC [3, 25]: 1.5 mg/L (≈ 1.62 µM); MIC ([3]; CCUG23451, 96 h, RPMI 2% GLU, 10% OligoG, 96 hours): 0.75 mg/L (≈ 0.812 µM); MIC [3, 26]: 0.375 mg/L (≈ 0.406 µM); MIC [3, 27]: 0.0938 mg/L (≈ 0.101 µM); MIC [3, 28]: 0.0234 mg/L (≈ 0.0253 µM); MIC [3, 29]: > 1.5 mg/L; MIC [3, 30]: 1.5 mg/L (≈ 1.62 µM); effect on MIC when OligoG is added to the medium ([3]; MH, Sabouraud, YM): reduction in MIC in all media tested
